SMILES strings stand for the structures. In brackets after ≈: the same amount, converted by molar mass. Where two headings read alike, the source gives them in different places. Where only a bound is given, the exact number is not on record here.

These results are taken from PMC10704561, “Multi-Photon-Sensitive Chromophore for the Photorelease of Biologically Active Phenols” (ACS Chemical Neuroscience, 2023).

Data set [1] concerns the target T1, TRPV1 channels (Homo sapiens, UniProt Q8NER1).
T1 construct: expressed in transfected cells
Briefly: TRPV1 activation on HEK 293 cells, Fluo-4 calcium imaging. The data set is classed as cell-based. On the procedure: HCT 116 cells were grown in Dulbecco’s […] medium (DMEM) supplemented with 10% fetal bovine serum (FBS), 1% nonessential amino acids (NEAA), and maintained at 37 °C and 5% CO2. HEK 293 cells stably expressing TRPV1 channels were grown as previously described.[62]
HEK 293 cells (stably expressing TRPV1 channels) were plated on a 35 mm glass-bottom dish (previously coated with poly-D-Lysine) a day before the experiment. A mixture of pluronic F-127 (Molecular Probes) and Fluo-4 AM (50 μg, Life Technologies) dissolved in dimethylsulfoxide (DMSO) (50 μL) was added to Hank’s balanced salt solution (HBSS) and sonicated for 5 min to prepare a solution containing a 0.02% final concentration of each. The solution was then loaded onto the cells growing in the 35 mm glass-bottom dish and incubated for 35–45 min in a humidified CO2 incubator (37 °C, 5% CO2). The cells were washed with HBSS (3 × 2 mL each) and subsequently maintained in HBSS during photoactivation experiments.
An Olympus FluoView FV1000MPE confocal microscope was employed to image and record cells plated onto 35 mm glass-bottom 4-well plates. A 488 nm ion laser excited the dopamine and serotonin sensors dLight 1.2 and GRAB5-HT, respectively, and Fluo-4 calcium dye. FluoView 10-ASW version 4.0 (Olympus), ImageJ-Fiji, and DeltaGraph (Red Rock Software) were used for capturing, extracting, and processing the collected data. Photoactivation was conducted with 405 nm (100% laser power, 1PE) or 720 nm (10% laser power, 24 mW, 2PE) light for MeO-CyHQ-O-DA and MeO-CyHQ-O-5HT or 740 nm (20% laser power, 15 mW light) for MeO-CyHQ-O-VNA and MeO-CyHQ-O-EG. Images were captured by using a 60× immersion lens.
Solutions of MeO-CyHQ-O-VNA or MeO-CyHQ-O-EG were added to HEK 293 cells stably expressing TRPV1 channels and loaded with Fluo-4 in a 35 mm glass-bottom dish. An area near a cell was irradiated with a single short pulse of 405 nm laser light while imaging with the 488 nm laser. Similarly, VNA and eugenol were released through 2PE using 740 nm light.

Data set [2] in a line: One-photon excitation (1PE) photolysis with 365 nm LED, HPLC quantification. It counts as physicochemical. The note with it: for t90% (time required to consume 90% of the starting material): 1PE 365 nm LED, lamp intensity differs per compound (Table S1). On the procedure: A 0.1 mM solution (3 mL) of each protected phenol in KMOPS buffer (10 or 20% CH3CN was used as a cosolvent for 3d and 6c) was placed in a 3 mL quartz cuvette along with a stirring bar. The solution was irradiated with stirring using a 365 nm LED lamp (Cairn OptoLED Lite). At different time intervals, 80 μL aliquots of the solution were taken out and analyzed by uHPLC (Agilent 1290 Infinity series), monitoring the AUC at 320 nm (Supporting Information, HPLC Data). An external standard calibration method of quantification was used for the calibration of the samples. The experiments were repeated in sets of three. A gradient elution with a flux rate of 0.3 mL/min using a mobile phase comprising A = 0.1% trifluoroacetic acid in water and B = acetonitrile (starting from 5% B to 100% over 10 min and re-equilibrating to 5% B before the next run) was used for the separations. A comparison of the AUC with the calibration curves of the substrates (obtained from known concentration) determined the percentages of the remaining starting materials. The percentages of the remaining starting materials were plotted versus time. The time to 90% of decomposition of the substrate (t90% values) was obtained by fitting a single exponential decay curve to the data using DeltaGraph (Red Rock Software). The following equation was used to calculate the quantum yield (Φu) of each photolysis reaction:[42],[47],[56],[57] Φu = (I σ t90%)^−1, where I is the irradiation intensity (determined by potassium ferrioxalate actinometry and measured in Einstein cm^–2 s^–1),[58] σ is the decadic extinction coefficient (1000 × ε) at 365 nm, and t90% is the time required to consume 90% of the starting material. See Supporting Information Table S1 for the I, σ, and t90% data.

The nature of data set [3]: UV-vis spectra and molar extinction coefficient in KMOPS buffer. The following applies: 0.1 mM in KMOPS buffer, pH 7.2 (3d, 6c: 10 or 20% CH3CN added). The data set is classed as physicochemical. On the procedure: A 100 μM solution of each protected phenol was prepared in KMOPS buffer (20% CH3CN was used as a cosolvent for compounds 3d and 6c). The UV–vis spectra of these solutions were recorded at between 250 and 500 nm. All of the measurements were repeated in triplicate, and the absorbance values were averaged. The Beer–Lambert law, ε = A(cl)^−1, was used for the calculation of ε values at λ = 365 nm, where A is the absorbance value measured at 365 nm, c is the concentration of the sample, and l is the cuvette length (1 cm). See the Supporting Information for the spectra.

The nature of data set [4]: Spontaneous hydrolysis in the dark. It counts as physicochemical. The following applies: 0.1 mM in KMOPS pH 7.2, dark, 7 days. Here is the method:
A 0.1 mM solution of each compound was prepared in KMOPS buffer. For compounds 3d and 6c, 20% CH3CN was used as a cosolvent. The solutions were kept in the dark for 7 days, and the percentage of the starting materials was determined by periodic HPLC analysis (Supporting Information, HPLC Data).

Data set [5] can be described thus: Solubility in KMOPS buffer pH 7.2. The data set is classed as physicochemical. From the text: The photochemical and photophysical properties were investigated in a simulated physiological buffer (KMOPS, pH 7.2) and compared with the literature data for CyHQ-O-DA (Table 1). […] For this derivative, 10% CH3CN in the buffer was used to ensure complete solubilization for the photochemistry experiments. The spontaneous hydrolysis in the dark was monitored over a period of 7 days and no significant hydrolysis was detected for any of the constructs. The molar absorptivity at the wavelength used for 1PE photolysis (ε365) ranged between 4800 and 5670 M^–1 cm^–1, in line with the values of most CyHQ-based PPGs.
The photochemical behavior of constructs 4–7c was investigated in KMOPS buffer at the concentration of 0.1 mM. Under these conditions, all compounds were soluble except for the VNA analogue 6c, which, because of the lipophilicity of the vanilloid, required 20% CH3CN for full solubilization. The stability toward hydrolysis in the dark was monitored over a week, and no significant decomposition was detected for any probe. All constructs were successfully photolyzed after light exposure, as shown in the time courses of the photolysis reactions (Figure 3). MeO-CyHQ constructs 4c, 6c, and 7c were photoactivated with excellent quantum efficiency and sensitivities, and good chemical yields were obtained by monitoring the appearance of the released bioeffector over the time course of the photoreaction (Table 1). […] We believe this effect is due to the presence of the thiophene ring, a well-known photoactive group,[51] which could act as an energy sink in the excited state and quench the photochemical reaction.

Setting [6] is: HEK 293 cells expressing TRPV1, exposure to 740 nm light, data not shown.

T1 sequence (Q8NER1 whole entry): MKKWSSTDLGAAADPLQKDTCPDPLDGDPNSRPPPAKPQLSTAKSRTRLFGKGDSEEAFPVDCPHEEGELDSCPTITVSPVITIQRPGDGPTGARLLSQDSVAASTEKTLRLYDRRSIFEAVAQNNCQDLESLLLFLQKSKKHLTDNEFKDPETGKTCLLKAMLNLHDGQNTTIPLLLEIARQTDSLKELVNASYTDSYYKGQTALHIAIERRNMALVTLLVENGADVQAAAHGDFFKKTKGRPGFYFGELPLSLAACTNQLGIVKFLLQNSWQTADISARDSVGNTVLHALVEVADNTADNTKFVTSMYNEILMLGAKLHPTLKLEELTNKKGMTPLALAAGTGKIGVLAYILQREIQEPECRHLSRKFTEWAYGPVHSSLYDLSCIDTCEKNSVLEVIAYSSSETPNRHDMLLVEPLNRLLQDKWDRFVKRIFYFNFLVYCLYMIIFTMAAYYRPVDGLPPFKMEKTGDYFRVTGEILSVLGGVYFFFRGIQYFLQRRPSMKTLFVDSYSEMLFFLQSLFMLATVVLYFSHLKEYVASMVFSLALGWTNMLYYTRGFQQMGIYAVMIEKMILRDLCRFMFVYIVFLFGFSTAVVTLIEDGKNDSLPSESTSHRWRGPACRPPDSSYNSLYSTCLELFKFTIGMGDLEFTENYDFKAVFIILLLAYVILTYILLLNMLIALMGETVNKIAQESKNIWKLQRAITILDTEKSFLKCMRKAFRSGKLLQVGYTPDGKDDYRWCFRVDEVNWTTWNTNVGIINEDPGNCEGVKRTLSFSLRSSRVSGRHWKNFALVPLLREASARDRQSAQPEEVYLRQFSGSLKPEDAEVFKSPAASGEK

In the case of `CCCCCCCCC(=O)NCc1ccc(O)c(OC)c1` [VNA, N-vanillyl-nonanoylamide, reference compound], the “relative potency as activator of TRPV1 channels (VNA versus EG)” value in data set [1] (inferred from concentration and pulse duration needed for release, 405 nm) is given as “more potent activator of TRPV1 channels”.

For orientation: solubility means how much of the substance goes into solution per volume. Take `N#Cc1c(O)ccc2c(N3CCOCC3)cc(COc3cc(CCN)ccc3O)nc12.O=C(O)C(F)(F)F` [3b, 2-(3-((8-Cyano-7-hydroxy-4-morpholinoquinolin-2-yl)methoxy)-4-hydroxyphenyl)ethan-1-aminium 2,2,2-trifluoroacetate]: the “t90% (time required to consume 90% of the starting material)” value in data set [2] is listed as 23.2 s. In addition, the “irradiation time to complete the 1PE photolysis reaction” value in data set [2] (365 nm) is reported as “less than 1 min”. In addition, in data set [3], the ε365 worked out at 4900 M^–1 cm^–1 and the λmax is on record as 358 nm. In addition, in data set [4], the “τd (time constant of spontaneous hydrolysis in buffer in the dark at room temperature)” value was “nh (No hydrolysis (<5% detected after 7 days))”. Further, in data set [5] (pH 7.2, aqueous buffer), the solubility is > 100 µM.

In the case of `Cc1cc(COc2cc(CCN)ccc2O)nc2c(C#N)c(O)ccc12.O=C(O)C(F)(F)F` [3a, 2-(3-((8-Cyano-7-hydroxy-4-methylquinolin-2-yl)methoxy)-4-hydroxyphenyl)ethan-1-aminium 2,2,2-trifluoroacetate], the “t90% (time required to consume 90% of the starting material)” value in data set [2] was 28.0 s. Besides, in data set [3], the ε365 is listed as 5000 M^–1 cm^–1 and the λmax came out at 365 nm. The “τd (time constant of spontaneous hydrolysis in buffer in the dark at room temperature)” value in data set [4] is “nh (No hydrolysis (<5% detected after 7 days))”. Also, the solubility in data set [5] (aqueous buffer, KMOPS buffer, pH 7.2, read-out: solubility) is > 100 µM.

Take `CCCCCCCCC(=O)NCc1ccc(OCc2cc(OC)c3ccc(O)c(C#N)c3n2)c(OC)c1` [6c, N-(4-((8-Cyano-7-hydroxy-4-methoxyquinolin-2-yl)methoxy)-3-methoxybenzyl)nonanamide]: the “t90% (time required to consume 90% of the starting material)” value in data set [2] is recorded as 23.1 s. In data set [3], this compound registered a ε365 of 3375 M^–1 cm^–1 and a λmax of 341 nm. Further, in data set [4], the “τd (time constant of spontaneous hydrolysis in buffer in the dark at room temperature)” value is “nh (No hydrolysis (<5% detected after 7 days))”. The “Fluo-4 calcium response after photoactivation (1PE)” value in data set [1] (HEK 293 cells expressing TRPV1, 2.5 μM, 50 ms pulse of 405 nm light) is listed as “robust response”. The “Fluo-4 calcium response after photoactivation (2PE)” value (“Fluo-4 calcium response … (2PE)” below) in data set [1] (HEK 293 cells expressing TRPV1, 5 μM, 250 ms pulse of 740 nm light) was “robust response”. This compound also had a solubility in data set [5] (pH 7.2, aqueous buffer) of 77 µM (≈ 38.9 µg/mL).

Consider `CCCCCCCCC(=O)NCc1ccc(OCc2ccc3ccc(O)c(C#N)c3n2)c(OC)c1` [CyHQ-VNA, reference compound], for which the “Fluo-4 calcium response … (2PE)” value in data set [1] (setting [6]) is “did not induce any response”.

For the compound `Cc1ccc(-c2cc(COc3cc(CCN)ccc3O)nc3c(C#N)c(O)ccc23)cc1.O=C(O)C(F)(F)F` [3d, 2-(3-((8-Cyano-7-hydroxy-4-(p-tolyl)quinolin-2-yl)methoxy)-4-hydroxyphenyl)ethan-1-aminium 2,2,2-trifluoroacetate], in data set [2], the “t90% (time required to consume 90% of the starting material)” value was determined as 76.7 s. In data set [3], the ε365 amounted to 4800 M^–1 cm^–1 and the λmax amounted to 372 nm. In addition, the “τd (time constant of spontaneous hydrolysis in buffer in the dark at room temperature)” value in data set [4] is listed as “nh (No hydrolysis (<5% detected after 7 days))”. In data set [5] (pH 7.2), the solubility entry is recorded as “slightly lower solubility”. The same compound gave a solubility in data set [5] (pH 7.2, aqueous buffer) of 85 µM.

Take `C=CCc1ccc(OCc2cc(OC)c3ccc(O)c(C#N)c3n2)c(OC)c1` [7c, 2-((4-Allyl-2-methoxyphenoxy)methyl)-7-hydroxy-4-methoxyquinoline-8-carbonitrile]: in data set [2], the “t90% (time required to consume 90% of the starting material)” value turned out to be 19.5 s. In data set [3], the ε365 stood at 7540 M^–1 cm^–1 and the λmax is recorded as 351 nm. The “τd (time constant of spontaneous hydrolysis in buffer in the dark at room temperature)” value in data set [4] was “nh (No hydrolysis (<5% detected after 7 days))”. Also, in data set [1] (HEK 293 cells expressing TRPV1, 5 μM, 500 ms pulse of 405 nm light), the “Fluo-4 calcium response after photoactivation (1PE)” value is “EG was released”. For the same compound, the “Fluo-4 calcium response … (2PE)” value in data set [1] (HEK 293 cells expressing TRPV1, 5 μM, 500 ms pulse of 740 nm light) is reported as “sufficient response”. In data set [5] (pH 7.2, aqueous buffer), the solubility is > 100 µM.

Regarding `CCCN(CCc1cccs1)[C@@H]1CCc2c(cccc2OCc2cc(OC)c3ccc(O)c(C#N)c3n2)C1` [5c, (R)-7-Hydroxy-4-methoxy-2-(((6-(propyl(2-(thiophen-2-yl)ethyl)amino)-5,6,7,8-tetrahydronaphthalen-1-yl)oxy)methyl)quinoline-8-carbonitrile], the “t90% (time required to consume 90% of the starting material)” value in data set [2] is recorded as 143.9 s. Moreover, in data set [3], the ε365 came out at 2300 M^–1 cm^–1 and the λmax worked out at 343 nm. Besides, in data set [4], the “τd (time constant of spontaneous hydrolysis in buffer in the dark at room temperature)” value was “nh (No hydrolysis (<5% detected after 7 days))”. Besides, the solubility in data set [5] (pH 7.2, aqueous buffer) was > 100 µM.

As for `C=CCc1ccc(OCc2ccc3ccc(O)c(C#N)c3n2)c(OC)c1` [CyHQ-EG, reference compound], the “Fluo-4 calcium response … (2PE)” value in data set [1] (setting [6]) is reported as “did not induce any response”.

On to `COc1cc(-c2cc(COc3cc(CCN)ccc3O)nc3c(C#N)c(O)ccc23)cc(OC)c1OC.O=C(O)C(F)(F)F` [3e, 2-(3-((8-Cyano-7-hydroxy-4-(3,4,5-trimethoxyphenyl)quinolin-2-yl)methoxy)-4-hydroxyphenyl)ethan-1-aminium 2,2,2-trifluoroacetate], for which the “t90% (time required to consume 90% of the starting material)” value in data set [2] was determined as 188.7 s. In data set [3], the ε365 came to 5210 M^–1 cm^–1 and the λmax is listed as 372 nm. For the same compound, the “τd (time constant of spontaneous hydrolysis in buffer in the dark at room temperature)” value in data set [4] is reported as “nh (No hydrolysis (<5% detected after 7 days))”. Besides, the solubility in data set [5] (pH 7.2, aqueous buffer) was > 100 µM.
